Measured values from ChEMBL document CHEMBL6087462, “Cuminaldehyde Potentiates Antiproteolytic Peptide Efficacy via Parallel Pathways of Enhanced Inner Membrane-Damaging Activity and Inhibition of Bacterial Energy Metabolism” (J Med Chem, 2025).

Assays:
[1] = Antimicrobial activity against Salmonella enterica subsp. enterica serovar Pullorum ATCC 7913 assessed as reduction in microbial growth by CLSI based broth microdilution method; assay type: functional
Pseudomonas aeruginosa = test: Antimicrobial activity against Pseudomonas aeruginosa ATCC 27853 assessed as reduction in microbial growth by CLSI based broth microdilution method; assay type: functional
Staphylococcus aureus [2] = test: Antimicrobial activity against Staphylococcus aureus ATCC 25923 assessed as reduction in microbial growth by CLSI based broth microdilution method; assay type: functional
Escherichia coli [3] = test: Antimicrobial activity against Escherichia coli 078 assessed as reduction in microbial growth by CLSI based broth microdilution method; assay type: functional
Escherichia coli [4] = test: Antimicrobial activity against Escherichia coli ATCC 25922 assessed as reduction in microbial growth by CLSI based broth microdilution method; assay type: functional
Salmonella typhimurium [5] = test: Antimicrobial activity against Salmonella typhimurium ATCC 7731 assessed as reduction in microbial growth by CLSI based broth microdilution method; assay type: functional, Salmonella enterica subsp. enterica serovar Typhimurium; conditions: Salmonella enterica
Escherichia coli [6] = test: Antimicrobial activity against Escherichia coli K88 assessed as reduction in microbial growth by CLSI based broth microdilution method; assay type: functional
Salmonella typhimurium [7] = test: Antimicrobial activity against Salmonella typhimurium ATCC 14028 assessed as reduction in microbial growth by CLSI based broth microdilution method; assay type: functional, Salmonella enterica subsp. enterica serovar Typhimurium; conditions: Salmonella enterica
Escherichia coli [8] = test: Antimicrobial activity against Escherichia coli UB 1005 assessed as reduction in microbial growth by CLSI based broth microdilution method; assay type: functional
Staphylococcus aureus [9] = test: Antimicrobial activity against Staphylococcus aureus ATCC 29213 assessed as reduction in microbial growth by CLSI based broth microdilution method; assay type: functional
Enterococcus faecalis = test: Antimicrobial activity against Enterococcus faecalis ATCC 29212 assessed as reduction in microbial growth by CLSI based broth microdilution method; assay type: functional
[10] = system: Staphylococcus epidermidis; test: Antimicrobial activity against Staphylococcus epidermidis ATCC 12228 assessed as reduction in microbial growth by CLSI based broth microdilution method; assay type: functional
Staphylococcus aureus [11] = test: Antimicrobial activity against Staphylococcus aureus 43300 assessed as reduction in microbial growth by CLSI based broth microdilution method; assay type: functional
Escherichia coli [12] = test: Antimicrobial activity against Escherichia coli K99 assessed as reduction in microbial growth by CLSI based broth microdilution method; assay type: functional

Measured: MIC

CC(C)=CCCC(C)CC=O (stereo not drawn)
32800 µg/mL: [1] | Escherichia coli [3] | Salmonella typhimurium [5] | Escherichia coli [6] | Salmonella typhimurium [7] | Escherichia coli [12]
16400 µg/mL: Pseudomonas aeruginosa | Staphylococcus aureus [2] | Escherichia coli [4] | Escherichia coli [8] | [10]
1020 µg/mL: Enterococcus faecalis
4100 µg/mL: Staphylococcus aureus [9] | Staphylococcus aureus [11]

Cc1ccc(C(C)C)cc1O [CARVACROL]
128 µg/mL: [1] | Pseudomonas aeruginosa | Staphylococcus aureus [2] | Escherichia coli [3] | Salmonella typhimurium [5] | Salmonella typhimurium [7] | Staphylococcus aureus [9] | [10] | Escherichia coli [12]
256 µg/mL: Escherichia coli [4] | Escherichia coli [6] | Escherichia coli [8] | Enterococcus faecalis | Staphylococcus aureus [11]
